Values after ≈ are worked out from the molar mass of the structure shown.
Experiments:
Design in all cases: agar dilution MIC, growth inhibition of clinical Burkholderia isolates
[1] = test system: T1, B. arboris AU14372; assay: organism not typed
T1 construct: AU14372
In short: (§1)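 MICs by agar dilution against Bcc and B. gladioli clinical isolates, interpreted with CLSI breakpoints where available; K. pneumoniae ATCC 700603 (SHV-18) and ATCC BAA-1705 (KPC) served as quality controls.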

[2] = test system: T2, B. cenocepacia AU12659; assay: microbe, parasite or virus in culture; settings: Burkholderia cenocepacia, AU12659
T2 construct: AU12659
In short: as §1

[3] = test system: T3, B. cenocepacia AU13262; assay: microbe, parasite or virus in culture; settings: Burkholderia cenocepacia, AU13262
T3 construct: AU13262
In short: as §1

[4] = test system: T4, B. cenocepacia AU8635; assay: microbe, parasite or virus in culture; settings: Burkholderia cenocepacia, AU8635
T4 construct: AU8635
In short: as §1

[5] = test system: T5, B. cenocepacia AU9292; assay: microbe, parasite or virus in culture; settings: Burkholderia cenocepacia, AU9292
T5 construct: AU9292
In short: as §1

[6] = test system: T6, B. cepacia AU13163; assay: microbe, parasite or virus in culture; settings: Burkholderia cepacia, AU13163
T6 construct: AU13163
In short: as §1

[7] = test system: T7, B. cepacia AU23707; assay: microbe, parasite or virus in culture; settings: Burkholderia cepacia, AU23707
T7 construct: AU23707
In short: as §1

[8] = test system: T8, B. contaminans AU22662; assay: organism not typed
T8 construct: AU22662
In short: as §1

[9] = test system: T9, B. gladioli AU21101; assay: organism not typed
T9 construct: AU21101
In short: as §1

[10] = test system: T10, B. gladioli AU29541; assay: organism not typed
T10 construct: AU29541
In short: as §1

[11] = test system: T11, B. gladioli AU30473; assay: organism not typed
T11 construct: AU30473
In short: as §1

[12] = test system: T12, B. multivorans AU10047; assay: microbe, parasite or virus in culture; settings: Burkholderia multivorans, AU10047
T12 construct: AU10047
In short: as §1

[13] = test system: T13, B. multivorans AU10398; assay: microbe, parasite or virus in culture; settings: Burkholderia multivorans, AU10398
T13 construct: AU10398
In short: as §1

[14] = test system: T14, B. multivorans AU17135; assay: microbe, parasite or virus in culture; settings: Burkholderia multivorans, AU17135
T14 construct: AU17135
In short: as §1

[15] = test system: T15, B. multivorans AU17545; assay: microbe, parasite or virus in culture; settings: Burkholderia multivorans, AU17545
T15 construct: AU17545
In short: as §1

[16] = test system: T16, B. multivorans AU19564; assay: microbe, parasite or virus in culture; settings: Burkholderia multivorans, AU19564
T16 construct: AU19564
In short: as §1

[17] = test system: T17, B. multivorans AU23995; assay: microbe, parasite or virus in culture; settings: Burkholderia multivorans, AU23995
T17 construct: AU23995
In short: as §1

[18] = test system: T18, B. multivorans AU25057; assay: microbe, parasite or virus in culture; settings: Burkholderia multivorans, AU25057
T18 construct: AU25057
In short: as §1

[19] = test system: T19, B. multivorans AU26250; assay: microbe, parasite or virus in culture; settings: Burkholderia multivorans, AU26250
T19 construct: AU26250
In short: as §1

[20] = test system: T20, B. multivorans AU28442; assay: microbe, parasite or virus in culture; settings: Burkholderia multivorans, AU28442
T20 construct: AU28442
In short: as §1

[21] = test system: T21, B. multivorans AU30438; assay: microbe, parasite or virus in culture; settings: Burkholderia multivorans, AU30438
T21 construct: AU30438
In short: as §1

[22] = test system: T22, B. vietnamiensis AU19457; assay: microbe, parasite or virus in culture; settings: Burkholderia vietnamiensis, AU19457
T22 construct: AU19457
In short: as §1

SMILES | MIC [1] | MIC [2] | MIC [3] | MIC [4] | MIC [5] | MIC [6] | MIC [7] | MIC [8] | MIC [9] | MIC [10] | MIC [11] | MIC [12] | MIC [13] | MIC [14] | MIC [15] | MIC [16] | MIC [17] | MIC [18] | MIC [19] | MIC [20] | other results
C[C@H]1COc2c(N3CCN(C)CC3)c(F)cc3c(=O)c(C(=O)O)cn1c23 [levofloxacin] | 8 µg/mL (≈ 22.1 µM) | 1 µg/mL (≈ 2.77 µM) | 4 µg/mL (≈ 11.1 µM) | > 32 µg/mL | 32 µg/mL (≈ 88.6 µM) | 2 µg/mL (≈ 5.53 µM) | 32 µg/mL (≈ 88.6 µM) | 4 µg/mL (≈ 11.1 µM) | 1 µg/mL (≈ 2.77 µM) | 8 µg/mL (≈ 22.1 µM) | 2 µg/mL (≈ 5.53 µM) | 8 µg/mL (≈ 22.1 µM) | 16 µg/mL (≈ 44.3 µM) | 2 µg/mL (≈ 5.53 µM) | 8 µg/mL (≈ 22.1 µM) | 8 µg/mL (≈ 22.1 µM) | 4 µg/mL (≈ 11.1 µM) | 8 µg/mL (≈ 22.1 µM) | 2 µg/mL (≈ 5.53 µM) | 16 µg/mL (≈ 44.3 µM) | MIC [21]: 4 µg/mL (≈ 11.1 µM); MIC [22]: 16 µg/mL (≈ 44.3 µM)
CO/N=C(\C(=O)N[C@@H]1C(=O)N2C(C(=O)[O-])=C(C[N+]3(C)CCCC3)CS[C@H]12)c1csc(N)n1 [cefepime] | > 32 µg/mL | 16 µg/mL (≈ 33.3 µM) | > 32 µg/mL | > 32 µg/mL | 32 µg/mL (≈ 66.6 µM) | 16 µg/mL (≈ 33.3 µM) | 32 µg/mL (≈ 66.6 µM) | 16 µg/mL (≈ 33.3 µM) | 16 µg/mL (≈ 33.3 µM) | 32 µg/mL (≈ 66.6 µM) | 32 µg/mL (≈ 66.6 µM) | 32 µg/mL (≈ 66.6 µM) | > 32 µg/mL | 4 µg/mL (≈ 8.32 µM) | 16 µg/mL (≈ 33.3 µM) | 16 µg/mL (≈ 33.3 µM) | > 32 µg/mL | 8 µg/mL (≈ 16.6 µM) | 4 µg/mL (≈ 8.32 µM) | > 32 µg/mL | MIC [21]: 16 µg/mL (≈ 33.3 µM); MIC [22]: > 32 µg/mL
C[C@@H](O)[C@H]1C(=O)N2C(C(=O)O)=C(S[C@@H]3CN[C@H](C(=O)N(C)C)C3)[C@H](C)[C@H]12 [meropenem] | 16 µg/mL (≈ 41.7 µM) | 4 µg/mL (≈ 10.4 µM) | 4 µg/mL (≈ 10.4 µM) | 16 µg/mL (≈ 41.7 µM) | 4 µg/mL (≈ 10.4 µM) | 4 µg/mL (≈ 10.4 µM) | 8 µg/mL (≈ 20.9 µM) | 4 µg/mL (≈ 10.4 µM) | 1 µg/mL (≈ 2.61 µM) | 8 µg/mL (≈ 20.9 µM) | 4 µg/mL (≈ 10.4 µM) | 16 µg/mL (≈ 41.7 µM) | 8 µg/mL (≈ 20.9 µM) | 4 µg/mL (≈ 10.4 µM) | 2 µg/mL (≈ 5.22 µM) | 4 µg/mL (≈ 10.4 µM) | 8 µg/mL (≈ 20.9 µM) | 4 µg/mL (≈ 10.4 µM) | 2 µg/mL (≈ 5.22 µM) | > 32 µg/mL | MIC [21]: 4 µg/mL (≈ 10.4 µM); MIC [22]: 4 µg/mL (≈ 10.4 µM)

Source: PMC10648927, “Examining the activity of cefepime-taniborbactam against Burkholderia cepacia complex and Burkholderia gladioli isolated from cystic fibrosis patients in the United States” (Antimicrobial Agents and Chemotherapy, 2023)
